Test results as given in patent publication US4914125A, “(S)-emopamil for the treatment of migraine” (priority 1988, dated 1990).

Experiments:
serotonin [1] = conditions: by comparison with known serotonin antagonists; cited from earlier work
[2] = tested on: increase in blood pressure induced by serotonin; assay: inhibition of the increase in blood pressure induced by serotonin in the pithed rat on intravenous administration; format: in vivo, rat (male Sprague-Dawley); conditions: for ED50: iv, serotonin 0.0215 mg/kg i.v., read-out: ED 50% (dose which inhibits the increase in blood pressure due to serotonin by 50%)
Experimental: The pithing is carried out by a rod through the orbit. […] The criterion of an action of a substance is the relative inhibition (δ-%) of the increase in blood pressure induced by serotonin (δmm Hg). The quantitative evaluation is by analysis of the linear regression (y =a+b x) between log dose (mg/kg) and relative inhibition (δ%) of the increase in blood pressure due to serotonin.

blood/brain barrier [3] = conditions: rat, in vivo
Description: (§1) The calculated BUI values indicate the cerebral uptake as a percentage of the water uptake.

blood/brain barrier [4] = assay: brain uptake index (BUI) after injection into the common carotid artery of the anesthetized rat, single passage through the cerebral capillaries; conditions: [14C]-labeled test substance, [3H]-labeled water as internal standard, HEPES-buffered Ringer solution pH=7.35, anesthetized rat
Description: as §1

serotonin [5] = assay: serotonin-antagonistic action on oral administration; format: in vivo; conditions: (S)-emopamil vs verapamil

For COc1ccc(CCN(C)CCCC(C#N)(c2ccc(OC)c(OC)c2)C(C)C)cc1OC (centres unmarked) [Verapamil, reference compound], which “serotonin-antagonistic action (in words)” value (serotonin [1]) is on record?
The value was “weak by comparison with known serotonin antagonists”.

And the ED50 ([2]; pithed rat, i.v.)?
The ED50 was 0.36 mg/kg.

Which results are given for CC(C)[C@@](C#N)(CCCN(C)CCc1ccccc1)c1ccccc1 [(S)-Emopamil, 2-isopropyl-5-(methyl-phenethylamino)-2-phenylvaleronitrile]?
passage of the blood/brain barrier (in words) (blood/brain barrier [3]): passes the blood/brain barrier more rapidly and in considerably larger amounts than does verapamil; antiserotonin action (in words) ([2]; compared with known serotonin antagonists and verapamil): reaches the potency of known serotonin antagonists and exceeds by a multiple that of the comparison compound verapamil; ED50 ([2]; pithed rat, i.v.): 0.02 mg/kg; serotonin-antagonistic action relative to verapamil (times) ([2]; pithed rat, i.v., (S)-emopamil vs verapamil): 18 times; BUI value (cerebral uptake as a percentage of the water uptake) (blood/brain barrier [4]): 110%; superiority to verapamil in the serotonin-antagonistic action (factor) (serotonin [5]): 4.6
